From patent publication US20240199547A1, “OPTICAL ABSORBENT COMPOSITION” (LMS CO., LTD., priority 2022, published 2024)

Test: Solubility of each synthesized chemical compound in solvents at room temperature
Type: physicochemical
Details: room temperature (about 25° C.); for Solubility in MEK: methyl ethyl ketone (MEK); for Solubility in MIBK: methyl isobutyl ketone (MIBK)
Description: The solubility of each synthesized chemical compound was evaluated. Solubility was determined according to the following criteria by evaluating the solubility of each chemical compound in a plurality of solvents (cyclohexanone, toluene, methyl isobutyl ketone (MIBK) or methyl ethyl ketone (MEK)) at room temperature (about 25° C.).
A: When the solubility is 1% by mass or more.
B: When the solubility is 0.5% by mass or more and less than 1% by mass.
C: When the solubility is 0.2% by mass or more and less than 0.5% by mass.
D: When the solubility is less than 0.2% by mass.
The solubility evaluation results were summarized and described in Table 1.

Compound | Solubility in Cyclohexanone | Solubility in MEK | Solubility in MIBK | Solubility in Toluene
CCCCC(CC)C(=O)Nc1cc2c(cc1C1=C([O-])/C(=c3\cc4c(cc3NC(=O)C(CC)CCCC)=[N+](CCCC)C(C)C4(C)C)C1=O)C(C)(C)C(C)N2CCCC (centres unmarked) [Synthesis Example 2] | A (When the solubility is 1% by mass or more.) | A (When the solubility is 1% by mass or more.) | A (When the solubility is 1% by mass or more.) | A (When the solubility is 1% by mass or more.)
CCCCCCCCN1c2cc(NC(=O)C(F)(F)F)c(C3=C([O-])/C(=c4\cc5c(cc4NC(=O)C(F)(F)F)=[N+](CCCCCCCC)C(CC)C5(C)C)C3=O)cc2C(C)(C)C1CC (centres unmarked) [Synthesis Example 3] | A (When the solubility is 1% by mass or more.) | A (When the solubility is 1% by mass or more.) | A (When the solubility is 1% by mass or more.) | A (When the solubility is 1% by mass or more.)
CCCC(=O)Nc1cc2c(cc1C1=C([O-])/C(=c3\cc4c(cc3NC(=O)CCC)=[N+](CCOC)C(C)C4(C)C)C1=O)C(C)(C)C(C)N2CCOC (centres unmarked) [Synthesis Example 4] | A (When the solubility is 1% by mass or more.) | A (When the solubility is 1% by mass or more.) | A (When the solubility is 1% by mass or more.) | A (When the solubility is 1% by mass or more.)
CCCCCCN1c2cc(NC(=O)OCC)c(C3=C([O-])/C(=c4\cc5c(cc4NC(=O)OCC)=[N+](CCCCCC)C(C)C5(C)C)C3=O)cc2C(C)(C)C1C (centres unmarked) [Synthesis Example 5] | A (When the solubility is 1% by mass or more.) | A (When the solubility is 1% by mass or more.) | A (When the solubility is 1% by mass or more.) | A (When the solubility is 1% by mass or more.)
CC(=O)Nc1cc2c(cc1C1=C([O-])/C(=c3\cc4c(cc3NC(C)=O)=[N+](C)C(C)C4(C)C)C1=O)C(C)(C)C(C)N2C (centres unmarked) [Synthesis Example 6] | B (When the solubility is 0.5% by mass or more and less than 1% by mass.) | B (When the solubility is 0.5% by mass or more and less than 1% by mass.) | B (When the solubility is 0.5% by mass or more and less than 1% by mass.) | B (When the solubility is 0.5% by mass or more and less than 1% by mass.)
